2 molecules from patent US5622989A, “Amino-benzofuryl-and thienyl-derivatives” (Bayer Aktiengesellschaft, priority 1994, dated 1997) can be followed below.

For this test, the system named is human PMN. The test is described as follows: Inhibition of FMLP-stimulated production of superoxide radical anions. Type of test: cell-based. To be noted: Neutrophil, neutrophils stimulated with 4×10^-8 M FMLP; for inhibition at 10 µM: 10 μM compound. As for the experimental part:
1. Preparation of human PMN
Blood was taken from healthy subjects by venous puncture and neutrophils were purified by dextran sedimentation and resuspended in the buffered medium.
2. Inhibition of FMLP-stimulated production of superoxide racidal anions.
Neutrophils (2.5×10^5 ml^-1) were mixed with cytochrome C (1.2 mg/ml) in the wells of a microtitre plate. Compounds according to the invention were added in dimethyl sulphoxide (DMSO). Compound concentration ranged from 2.5 nM to 10 μM, the DMSO concentration was 0.1% v/v in all wells. After addition of cytochalasin b (5 μg×ml^-1) the plate was incubated for 5 min at 37° C. Neutrophils were then stimulated by addition of 4×10^-8 M FMLP and superoxide generation measured as superoxide dismutase inhibitable reduction of cytochrome C by monitoring the OD550 in a Thermomax microtitre plate spectrophotometer. Initial rates were calculated using a Softmax kinetic calculation programme. Blank wells contained 200 units of superoxide dismutase.
The inhibition of superoxide production was calculated as follows: [formula] Rx=Rate of the well containing the compound according to the invention. Ro=Rate in the control well.
Rb=Rate in the superoxide dismutase containing blank well.

In turn, `CSc1ccc(C(=O)c2oc3cc(NC(C)=O)ccc3c2CCC(=O)O)cc1` [Example 21] registered an inhibition at 10 µM of 90% and an IC50 of 420 nM.

In the case of `COc1cccc(C(=O)c2oc3cc(NC(C)=O)ccc3c2CCC(=O)O)c1` [Example 24], at 10 µM the inhibition was 68% and inhibition was half-maximal at 600 nM (IC50).
